# According to patent US7138361B2, “Herbicidal heterocycles” (E. I. du Pont de Nemours and Company, priority 2000, dated 2006):
# Columns and labels:
# Assay type in all cases: in vivo
# [1] = system: velvetleaf (Abutilon theophrasti); experiment: Test C preemergence
# Procedure, shortened: (§1)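 Formulation: non-phytotoxic solvent mix incl. surfactant. Pre: applied right after planting. Post: 1–4-leaf seedlings. Read: visual 0–100, day 12–14, greenhouse.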
# [2] = system: cocklebur (Xanthium strumarium); experiment: Test C preemergence
# Procedure, shortened: as §1
# kochia (Kochia scoparia) = experiment: Test C preemergence
# Procedure, shortened: as §1
# [3] = system: Surinam grass (Brachiaria decumbens); experiment: Test C preemergence
# Procedure, shortened: as §1
# [4] = system: common ragweed (Ambrosia elatior); experiment: Test C preemergence
# Procedure, shortened: as §1
# [5] = system: yellow nutsedge (Cyperus esculentus); experiment: Test C preemergence
# Procedure, shortened: as §1
# [6] = system: crabgrass (Digitaria sanguinalis); experiment: Test C preemergence
# Procedure, shortened: as §1
# [7] = system: pigweed (Amaranthus retroflexus); experiment: Test C preemergence
# Procedure, shortened: as §1
# [8] = system: johnsongrass (Sorghum halepense); experiment: Test C preemergence
# Procedure, shortened: as §1
# [9] = system: woolly cupgrass (Eriochloa villosa); experiment: Test C preemergence
# Procedure, shortened: as §1
# corn (Zea mays) = experiment: Test C preemergence
# Procedure, shortened: as §1
# [10] = system: goosegrass (Eleusine indica); experiment: Test C preemergence
# Procedure, shortened: as §1
# [11] = system: bermudagrass (Cynodon dactylon); experiment: Test C preemergence
# Procedure, shortened: as §1
# [12] = system: morningglory (Ipomoea hederacea); experiment: Test C preemergence
# Procedure, shortened: as §1
# soybean (Glycine max) = experiment: Test C preemergence
# Procedure, shortened: as §1
# [13] = system: lambsquarters (Chenopodium album); experiment: Test C preemergence
# Procedure, shortened: as §1
# Nightshade = experiment: Test C preemergence
# Sunflower = experiment: Test C preemergence; details: Rate 125 g/ha; scale 0 to 100, 0 no effect, 100 complete control
# [14] = system: giant foxtail (Setaria faberii); experiment: Test C preemergence
# Procedure, shortened: as §1
# [15] = system: barnyardgrass (Echinochloa crus-galli); experiment: Test C flooded paddy test; details: for Barnyardgrass plant response rating: Flooded Paddy, scale 0 to 100, 0 no effect, 100 complete control; for Plant response rating, Barnyardgrass: flooded paddy test, scale 0 to 100 (0 no effect, 100 complete control)
# Procedure, shortened: (§2)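 Response on a 0-to-100 scale (no effect to complete control) was assessed by eye versus controls. Plants had reached 2 leaves when treated in flooded paddy conditions. The assessment took place after 12–14 days of greenhouse growth.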
# [16] = system: duck salad (Heteranthera limosa); experiment: Test C flooded paddy test; details: for Ducksalad plant response rating: Flooded Paddy, scale 0 to 100, 0 no effect, 100 complete control; for Plant response rating, Ducksalad: flooded paddy test, scale 0 to 100 (0 no effect, 100 complete control)
# Procedure, shortened: as §2
# [17] = system: smallflower flatsedge (Cyperus difformis); experiment: Test C flooded paddy test; details: for Flatsedge plant response rating: Flooded Paddy, scale 0 to 100, 0 no effect, 100 complete control; for Plant response rating, Flatsedge: flooded paddy test, scale 0 to 100 (0 no effect, 100 complete control)
# Procedure, shortened: as §2
# [18] = Rate 125 g/ha, scale 0 to 100, 0 no effect, 100 complete control
# [19] = preemergence, Rate 62 g/ha, scale 0 to 100
# [20] = preemergence, Rate 500 g/ha, visual evaluation after 12 to 14 days
# [21] = preemergence, Rate 250 g/ha, scale 0 to 100, 0 no effect, 100 complete control
compound,measurement,setting,value
CCCC(C)c1ccn(C2OCN(c3cccc(C(F)(F)F)c3)C2=O)n1 (stereo not drawn) [Compound 89],"Plant response rating, Velvetleaf",[1]; [18],0
same,"Plant response rating, Velvetleaf",[1]; [19],0
same,"Plant response rating (0 to 100), Velvetleaf",[1]; [20],10
same,"Plant response rating, Velvetleaf",[1]; [21],0
same,"Plant response rating, Cocklebur",[2]; [18],0
same,"Plant response rating, Cocklebur",[2]; [19],0
same,"Plant response rating (0 to 100), Cocklebur",[2]; [20],10
same,"Plant response rating, Cocklebur",[2]; [21],10
same,"Plant response rating, Kochia",kochia (Kochia scoparia); [18],70
same,"Plant response rating, Kochia",kochia (Kochia scoparia); [19],20
same,"Plant response rating (0 to 100), Kochia",kochia (Kochia scoparia); [20],100
same,"Plant response rating, Kochia",kochia (Kochia scoparia); [21],90
same,"Plant response rating, Surinam grass",[3]; [18],10
same,"Plant response rating, Surinam grass",[3]; [19],0
same,"Plant response rating (0 to 100), Surinam grass",[3]; [20],65
same,"Plant response rating, Surinam grass",[3]; [21],30
same,"Plant response rating, Ragweed, Common",[4]; [18],0
same,"Plant response rating, Ragweed, Common",[4]; [19],0
same,"Plant response rating (0 to 100), Ragweed, Common",[4]; [20],0
same,"Plant response rating, Ragweed, Common",[4]; [21],0
same,"Plant response rating, Nutsedge",[5]; [18],0
same,"Plant response rating, Nutsedge",[5]; [19],0
same,"Plant response rating (0 to 100), Nutsedge",[5]; [20],0
same,"Plant response rating, Nutsedge",[5]; [21],0
same,"Plant response rating, Crabgrass",[6]; [18],100
same,"Plant response rating, Crabgrass",[6]; [19],20
same,"Plant response rating (0 to 100), Crabgrass",[6]; [20],100
same,"Plant response rating, Crabgrass",[6]; [21],100
same,"Plant response rating, Pigweed",[7]; [18],0
same,"Plant response rating, Pigweed",[7]; [19],0
same,"Plant response rating (0 to 100), Pigweed",[7]; [20],100
same,"Plant response rating, Pigweed",[7]; [21],50
same,"Plant response rating, Johnsongrass",[8]; [18],70
same,"Plant response rating, Johnsongrass",[8]; [19],50
same,"Plant response rating (0 to 100), Johnsongrass",[8]; [20],100
same,"Plant response rating, Johnsongrass",[8]; [21],70
same,"Plant response rating, Cupgrass, Woolly",[9]; [18],0
same,"Plant response rating, Cupgrass, Woolly",[9]; [19],0
same,"Plant response rating (0 to 100), Cupgrass, Woolly",[9]; [20],70
same,"Plant response rating, Cupgrass, Woolly",[9]; [21],40
same,"Plant response rating, Corn",corn (Zea mays); [18],25
same,"Plant response rating, Corn",corn (Zea mays); [19],10
same,"Plant response rating (0 to 100), Corn",corn (Zea mays); [20],30
same,"Plant response rating, Corn",corn (Zea mays); [21],30
same,"Plant response rating, Goosegrass",[10]; [18],100
same,"Plant response rating, Goosegrass",[10]; [19],95
same,"Plant response rating (0 to 100), Goosegrass",[10]; [20],100
same,"Plant response rating, Goosegrass",[10]; [21],100
same,"Plant response rating, Bermudagrass",[11]; [18],90
same,"Plant response rating, Bermudagrass",[11]; [19],10
same,"Plant response rating (0 to 100 where 0 is no effect and 100 is complete control), Bermudagrass",[11]; [20],100
same,"Plant response rating, Bermudagrass",[11]; [21],90
same,"Plant response rating, Morningglory",[12]; [18],0
same,"Plant response rating, Morningglory",[12]; [19],0
same,"Plant response rating (0 to 100), Morningglory",[12]; [20],0
same,"Plant response rating, Morningglory",[12]; [21],0
same,"Plant response rating, Soybean",soybean (Glycine max); [18],0
same,"Plant response rating, Soybean",soybean (Glycine max); [19],0
same,"Plant response rating (0 to 100), Soybean",soybean (Glycine max); [20],30
same,"Plant response rating, Soybean",soybean (Glycine max); [21],0
same,"Plant response rating, Lambsquarters",[13]; [18],100
same,"Plant response rating, Lambsquarters",[13]; [19],80
same,"Plant response rating (0 to 100), Lambsquarters",[13]; [20],100
same,"Plant response rating, Lambsquarters",[13]; [21],100
same,"Plant response rating, Nightshade","Nightshade; Rate 62 g/ha, scale 0 to 100",0
same,"Plant response rating, Nightshade",Nightshade; [18],0
same,"Plant response rating, Nightshade","Nightshade; Rate 250 g/ha, scale 0 to 100, 0 no effect, 100 complete control",0
same,"Plant response rating, Sunflower",Sunflower,0
same,"Plant response rating, Foxtail, Giant",[14]; [18],0
same,"Plant response rating, Foxtail, Giant",[14]; [19],0
same,"Plant response rating (0 to 100), Foxtail, Giant",[14]; [20],100
same,"Plant response rating, Foxtail, Giant",[14]; [21],0
same,Barnyardgrass plant response rating,[15]; Rate 250 g/ha,100
same,Barnyardgrass plant response rating,[15]; Rate 500 g/ha,100
same,"Plant response rating, Barnyardgrass",[15]; Rate 62 g/ha,20
same,"Plant response rating, Barnyardgrass",[15]; Rate 125 g/ha,70
same,Ducksalad plant response rating,[16]; Rate 250 g/ha,40
same,Ducksalad plant response rating,[16]; Rate 500 g/ha,90
same,"Plant response rating, Ducksalad",[16]; Rate 62 g/ha,0
same,"Plant response rating, Ducksalad",[16]; Rate 125 g/ha,0
same,Flatsedge plant response rating,[17]; Rate 250 g/ha,90
same,Flatsedge plant response rating,[17]; Rate 500 g/ha,100
same,"Plant response rating, Flatsedge",[17]; Rate 62 g/ha,80
same,"Plant response rating, Flatsedge",[17]; Rate 125 g/ha,90
